Test results from patent publication US10119966B2, “Method of detecting auto-antibodies from patients suffering from rheumatoid arthritis, a peptide and assay kit” (STICHTING VOOR DE TECHNISCHE WETENSCHAPPEN, priority 2001, dated 2018).
Non-standard residues stand in square brackets, D forms with d. No end group written: not given here. Cit = NC(=O)NCCC[C@H](N)C(=O)O

Assays:
Type in all cases: binding, human
[1] = system: autoantibodies from patients suffering from rheumatoid arthritis (RA sera); assay: ELISA of coated peptides with sera from RA patients; conditions: for Sensitivity [%] cyclic / Sensitivity [%] Linear: 318 RA sera; for Sensitivity [%] Linear: linear variant; for assessment of cyclic variants (in words): cysteine-bromoacetic acid cyclisation
Protocol: The most interesting peptides were synthesised in a slightly larger quantity to form a linear and a cyclic variant, and in most cases in a citrulline and arginine (=control) variant. These peptides were tested for reactivity with a series of sera from RA patients. The peptides were coated to ELISA plates and incubated with sera from RA patients. Each serum was tested in duplicate. Sera from healthy persons were used as negative control. […]
(§1) Using the above-described methods, seven XG peptide units were tested for reactivity with the 318 sera mentioned in Table 2 from patients suffering from rheumatoid arthritis. The specificity was determined with the aid of sera mentioned in Table 2 from control patients and normal donors.
(§2) In accordance with the methods described in this document, five XnonG peptide units were tested for reactivity with the same 318 sera mentioned in Table 2 from patients suffering from rheumatoid arthritis. Specificity was again determined with the aid of the sera mentioned in Table 2 from control patients and normal donors.

[2] = system: sera from control patients and normal donors; assay: ELISA with sera from patients with other diseases and normal sera (specificity); conditions: for Specificity [%] cyclic: cyclic variant; for Specificity [%] cyclic / Specificity [%] linear: control patients and normal donors of Table 2; for Specificity [%] linear: linear variant; for % positive sera: cyclic peptide
Protocol: (§3) The most interesting peptides were synthesised in a slightly larger quantity to form a linear and a cyclic variant, and in most cases in a citrulline and arginine (=control) variant. These peptides were tested for reactivity with a series of sera from RA patients. The peptides were coated to ELISA plates and incubated with sera from RA patients. Each serum was tested in duplicate. Sera from healthy persons were used as negative control.
The above table represents ELISAs with sera obtained from patients suffering from RA and from patients suffering from various other autoimmune diseases. […] The arginine variant of peptide 0002-36 (R on position 0 and +2, i.e., instead of Cit in the formula) was also tested and shown to be negative with all tested RA and normal sera.
as §1, §2

[3] = system: XG-negative sera (RA sera comprising no XG reactive antibodies); assay: ELISA of XnonG peptides with RA sera that do not react with XG peptides; conditions: for Sensitivity [%] cyclic: cyclic variant; for Sensitivity [%] cyclic / Sensitivity [%] Linear: 80 of the 318 RA sera that did not react with any XG peptide of Table 6; for Sensitivity [%] Linear: linear variant
Protocol: as §3
The percentages mentioned in table 8 therefore show the percentage of the sera that did comprise antibodies to XnonG peptide units but comprised no XG reactive antibodies.

[4] = XG peptide units, cyclic variant
[5] = XnonG peptide units, cyclic variant
[6] = ELISA with 186 RA sera, cyclic variants
[7] = two cohorts of RA sera, in total 318 sera

Q: For “H Q K W R Cit G R S Cit A A (HQKWR[Cit]GRS[Cit]AA) [0002-37]”, which “Sensitivity [%] cyclic” value [1, 4] is on record?
A: 70%

Q: What about the “Sensitivity [%] Linear” value ([1]; XG peptide units) of the same substance?
A: 60%

Q: And the “Specificity [%] cyclic” value ([2]; XG peptide units)?
A: 98%

Q: And the “Specificity [%] linear” value ([2]; XG peptide units)?
A: 98%

Q: G V Y L V R Cit L Cit M M R [0218-36] was tested. Which “Sensitivity [%] cyclic” value [1, 5] did it give?
A: 70%

Q: And the “Sensitivity [%] Linear” value ([1]; XnonG peptide units)?
A: 50%

Q: And the “Sensitivity [%] cyclic” value [3]?
A: 17%

Q: And the “Sensitivity [%] Linear” value [3]?
A: 17%

Q: And the “Specificity [%] cyclic” value ([2]; XnonG peptide units)?
A: 98%

Q: And the “Specificity [%] linear” value ([2]; XnonG peptide units)?
A: 98%

Q: With “0002-36 (cyclic): cyclic variant of peptide 0002-36, cyclisized by the cysteine-bromoacetic acid method (HQFRF[Cit]G[Cit]SRAA; thioether (positions not given here); not fully specified (bridges); printed as H Q F R F Cit G Cit S R A A; also: cyclised by cysteine-bromoacetic acid method, no Cys in given chain, ring places not given here)” as the substance, how does the positive sera ([1]; ELISA with 132 RA sera) read?
A: 71%

Q: And the “positive sera (number/total)” value ([1]; ELISA with 132 RA sera)?
A: 94/132

Q: And the positive sera [1, 6]?
A: 71%

Q: And the “% positive sera” value ([1]; RA sera, N=318, cyclic peptide)?
A: 71%

Q: And the “% positive sera” value ([2]; Colitis ulcerosa sera, N=40)?
A: 0%

Q: What about the “% positive sera” value ([2]; Crohn's disease sera, N=40) of the same substance?
A: 0%

Q: And the “% positive sera” value ([2]; Infectious diseases (malaria, chlamydia, mycoplasma, etc.) sera, N=250)?
A: 1%

Q: And the “% positive sera” value ([2]; Normal human serum, N=84)?
A: 0%

Q: And the “% positive sera” value ([2]; Osteoarthritis sera, N=29)?
A: 0%

Q: What about the “% positive sera” value ([2]; PM, Polymyositis sera, N=11) of the same substance?
A: 0%

Q: And the “% positive sera” value ([2]; Prim Sjögren's syndrome sera, N=34)?
A: 3%

Q: What about the “% positive sera” value ([2]; Psoriasis sera, N=10) of the same substance?
A: 0%

Q: And the “% positive sera” value ([2]; SSc Scleroderma sera, N=10)?
A: 0%

Q: What about the “% positive sera” value ([2]; Systemic Lupus Erythematodes sera, N=24) of the same substance?
A: 0%

Q: And the “% positive sera” value ([2]; Vasculitis sera, N=30)?
A: 0%

Q: Which results are given for “arginine variant of peptide 0002-36: R on position 0 and +2, i.e., instead of Cit in the formula; control variant (HQFRFRGRSRAA) [reference compound]”?
A: reactivity with RA sera ([1]; all tested RA sera): negative; reactivity with normal sera ([2]; all tested normal sera): negative

Q: What does the source list for “A R F Q M Cit H Cit R L I R (ARFQM[Cit]H[Cit]RLIR) [0107-35]”?
A: Sensitivity [%] cyclic [1, 5]: 61%; Sensitivity [%] Linear ([1]; XnonG peptide units): 52%; reacts with % of the sera that are not reactive with cyclic 0002-36 ([3]; cyclic form): 18%; Sensitivity [%] cyclic [3]: 18%; Sensitivity [%] Linear [3]: 17%; Specificity [%] cyclic ([2]; XnonG peptide units): 99%; Specificity [%] linear ([2]; XnonG peptide units): 98%

Q: For HQFRF[Cit]GWSRAA [0002-63], which “reactivity with RA sera (in words)” value [1] is on record?
A: very satisfactory

Q: And the “Sensitivity [%] cyclic” value [1, 4]?
A: 71%

Q: What about the “Sensitivity [%] Linear” value ([1]; XG peptide units) of the same substance?
A: 60%

Q: And the “assessment of cyclic variants (in words)” value ([1]; cyclic variants)?
A: of interest

Q: And the “Specificity [%] cyclic” value ([2]; XG peptide units)?
A: 98%

Q: What about the “Specificity [%] linear” value ([2]; XG peptide units) of the same substance?
A: 98%

Q: With “H Q F R F Cit G Cit S R A A (HQFRF[Cit]G[Cit]SRAA) [0002-36 (linear)]” as the substance, how does the positive sera ([1]; ELISA with 132 RA sera) read?
A: 61%

Q: And the “positive sera (number/total)” value ([1]; ELISA with 132 RA sera)?
A: 80/132

Q: Which “Sensitivity [%] cyclic” value [1, 5] does the source give for “K P Y T V Cit K F M R R P (KPYTV[Cit]KFMRRP) [0107-32]” here?
A: 63%

Q: And the “Sensitivity [%] Linear” value ([1]; XnonG peptide units)?
A: 48%

Q: And the further % added ([3]; cyclic peptide, added to cyclic 0107-35)?
A: 8%

Q: And the “Sensitivity [%] cyclic” value [3]?
A: 18%

Q: What about the “Sensitivity [%] Linear” value [3] of the same substance?
A: 15%

Q: What about the “Specificity [%] cyclic” value ([2]; XnonG peptide units) of the same substance?
A: 98%

Q: What about the “Specificity [%] linear” value ([2]; XnonG peptide units) of the same substance?
A: 98%

Q: “H Q K R G Cit G W S R A A (HQKRG[Cit]GWSRAA) [0002-27]” was tested. Which “Sensitivity [%] cyclic” value [1, 4] did it give?
A: 71%

Q: What about the “Sensitivity [%] Linear” value ([1]; XG peptide units) of the same substance?
A: 56%

Q: What about the “assessment of cyclic variants (in words)” value ([1]; cyclic variants) of the same substance?
A: of interest

Q: What about the “Specificity [%] cyclic” value ([2]; XG peptide units) of the same substance?
A: 98%

Q: What about the “Specificity [%] linear” value ([2]; XG peptide units) of the same substance?
A: 98%

Q: With “H Q R R T Cit G G S R A A (HQRRT[Cit]GGSRAA) [0002-31]” as the substance, how does the “Sensitivity [%] cyclic” value [1, 4] read?
A: 69%

Q: And the “Sensitivity [%] Linear” value ([1]; XG peptide units)?
A: 51%

Q: What about the “assessment of cyclic variants (in words)” value ([1]; cyclic variants) of the same substance?
A: of interest

Q: What about the “Specificity [%] cyclic” value ([2]; XG peptide units) of the same substance?
A: 98%

Q: And the “Specificity [%] linear” value ([2]; XG peptide units)?
A: 98%

Q: Which results are given for HQRKW[Cit]GASRAA [0002-32]?
A: Sensitivity [%] cyclic [1, 4]: 71%; Sensitivity [%] Linear ([1]; XG peptide units): 61%; Specificity [%] cyclic ([2]; XG peptide units): 98%; Specificity [%] linear ([2]; XG peptide units): 98%

Q: How did the “Sensitivity [%] cyclic” value [1, 4] turn out when “H Q R R V Cit G W S R A A (HQRRV[Cit]GWSRAA) [0002-29]” was run?
A: 70%

Q: And the “Sensitivity [%] Linear” value ([1]; XG peptide units)?
A: 57%

Q: And the “assessment of cyclic variants (in words)” value ([1]; cyclic variants)?
A: of interest

Q: And the “Specificity [%] cyclic” value ([2]; XG peptide units)?
A: 98%

Q: What about the “Specificity [%] linear” value ([2]; XG peptide units) of the same substance?
A: 98%

Q: What does the source list for “Y S F V W Cit S H A R P R (YSFVW[Cit]SHARPR) [0107-45]”?
A: Sensitivity [%] cyclic [1, 5]: 69%; Sensitivity [%] Linear ([1]; XnonG peptide units): 51%; Sensitivity [%] cyclic [3]: 18%; Sensitivity [%] Linear [3]: 16%; Specificity [%] cyclic ([2]; XnonG peptide units): 99%; Specificity [%] linear ([2]; XnonG peptide units): 98%

Q: Which “Sensitivity [%] cyclic” value [1, 5] does the source give for “A R F Q M R H Cit R L I R (ARFQMRH[Cit]RLIR) [0113-30]” here?
A: 71%

Q: And the “Sensitivity [%] Linear” value ([1]; XnonG peptide units)?
A: 49%

Q: And the “Sensitivity [%] cyclic” value [3]?
A: 19%

Q: And the “Sensitivity [%] Linear” value [3]?
A: 18%

Q: And the “Specificity [%] cyclic” value ([2]; XnonG peptide units)?
A: 100%

Q: What about the “Specificity [%] linear” value ([2]; XnonG peptide units) of the same substance?
A: 99%

Q: How did the “reactivity with RA sera (in words)” value [1] turn out when “H Q F R F Cit G Cit S R A A (HQFRF[Cit]G[Cit]SRAA) [0002-36]” was run?
A: very satisfactory

Q: What about the “Sensitivity [%] cyclic” value [1, 4] of the same substance?
A: 71%

Q: And the “Sensitivity [%] Linear” value ([1]; XG peptide units)?
A: 61%

Q: And the “assessment of cyclic variants (in words)” value ([1]; cyclic variants)?
A: of interest

Q: And the “OD-values, cyclic versus linear variant” value [1, 7]?
A: much higher

Q: What about the “frequency of reaction, cyclic versus linear variant” value [1, 7] of the same substance?
A: react more frequently (and better) than the linear variant

Q: And the “Specificity [%] cyclic” value ([2]; XG peptide units)?
A: 99%

Q: And the “Specificity [%] linear” value ([2]; XG peptide units)?
A: 99%

Q: For “0002-63 (cyclic): cyclic variant of peptide 0002-63 (HQFRF[Cit]GWSRAA; thioether (positions not given here); also: cyclised by cysteine-bromoacetyl thioether, Cys and bromoacetyl not shown in chain)”, which positive sera [1, 6] is on record?
A: 71%

Q: Which “reactivity with RA sera (in words)” value [1] does the source give for HQWNR[Cit]GWSRAA [0002-35] here?
A: very satisfactory

Q: GFFSA[Cit]GHRPLD [0101-7] was tested. Which “reacted with % of RA sera” value ([1]; cyclic variant, 186 RA-sera) did it give?
A: 45%

Q: What about the “reacted with % of the sera” value ([1]; linear peptide) of the same substance?
A: 55%
